Experimental data as given in article PMC7810383 (Science Advances, 2021).
Peptide text beside a SMILES is read from it. * marks the point of attachment. Cbz = O=C(OCc1ccccc1)*; CH2F = FC*

Columns and labels:
BIRC2 = assay type: cell-based, human
[1] = tested on: PARP cleavage in HeLa cells; assay type: cell-based, human; details: NAA10 RNAi 72 hours, Z-VAD-FMK 40 μM, anti-PARP immunoblot
XIAP = assay type: biochemical, human
[2] = tested on: IAPs (BIRC2, BIRC3, XIAP, BIRC6); assay type: binding, human
hGID/CTLH complex = assay type: binding, human; details: peptide on streptavidin beads, HeLa lysate, quantitative MS

## CN[C@@H](C)C(=O)N[C@H](C(=O)N1CCC[C@H]1c1nc(C(=O)c2ccc(F)cc2)cs1)C1CCCCC1 [LCL161]
BIRC2
  BIRC2 levels: IAP depletion

## COC(=O)C[C@H](NC(=O)[C@H](C)NC(=O)[C@@H](NC(=O)OCc1ccccc1)C(C)C)C(=O)CF [Z-VAD, Benzyloxycarbonyl-Val-Ala-Asp-fluoromethyl ketone] (Cbz-Val-Ala-Asp(OMe)-CH2F)
[1]
  PARP cleavage induced by NatA RNAi: inhibited

## Ac or H-AAAGAAATHLKK-K-(Biotin)-NH2 [PIGS Nt-Ac biotinylated peptide]
XIAP
  Ubiquitination of streptavidin-bound peptide by XIAP (anti-ubiquitin immunoblot): not ubiquitinated

## Ac or H-AQFAFESDLHSLLQL-PEG-K(Biotin)-CONH2 [CDC20 Nt-Ac biotinylated peptide]
[2]
  IAP enrichment in peptide pull-down, Nt-free versus Nt-Ac peptide: no enrichment

## H-AAAGAAATHLKK-K-(Biotin)-NH2 [PIGS Nt-free biotinylated peptide]
[2]
  IAP enrichment in peptide pull-down, Nt-free versus Nt-Ac peptide: no IAP enrichment
XIAP
  Ubiquitination of streptavidin-bound peptide by XIAP (anti-ubiquitin immunoblot): not ubiquitinated

## H-AAPEEHDSPTKK-K-(Biotin)-NH2 [DDX47 Nt-free biotinylated peptide]
[2]
  IAP enrichment in peptide pull-down, Nt-free versus Nt-Ac peptide: identified IAPs as binding partners
XIAP
  Ubiquitination of streptavidin-bound peptide by XIAP (anti-ubiquitin immunoblot): strongly ubiquitinated

## H-AAPWRRWPTGKK-K-(Biotin)-NH2 [TMEM223 Nt-free biotinylated peptide]
[2]
  IAP enrichment in peptide pull-down, Nt-free versus Nt-Ac peptide: identified IAPs as binding partners

## H-AISSSSCELPLVAVF-PEG-K(Biotin)-CONH2 [NIT1 Nt-free biotinylated peptide]
[2]
  IAP enrichment in peptide pull-down, Nt-free versus Nt-Ac peptide: strongly enriched

## H-APPSVFAEVPQAQPV-PEG-K(Biotin)-CONH2 [GOT1 Nt-free biotinylated peptide]
[2]
  IAP enrichment in peptide pull-down, Nt-free versus Nt-Ac peptide: no IAP enrichment

## H-AQFAFESDLHSLLQL-PEG-K(Biotin)-CONH2 [CDC20 Nt-free biotinylated peptide]
[2]
  IAP enrichment in peptide pull-down, Nt-free versus Nt-Ac peptide: robust interactions

## H-ASVGECPAPVKK-K-(Biotin)-NH2 [ATP5J2 Nt-free biotinylated peptide]
[2]
  IAP enrichment in peptide pull-down, Nt-free versus Nt-Ac peptide: identified IAPs as binding partners

## H-ATPFQEGLRTFKKK-K(Biotin)-NH2 [CASP9 Nt-free biotinylated peptide, reference compound]
[2]
  IAP enrichment in peptide pull-down, Nt-free versus Nt-Ac peptide: preferential binding partners
XIAP
  Ubiquitination of streptavidin-bound peptide by XIAP (anti-ubiquitin immunoblot): levels that were comparable

## H-AVGKNKRLTKK-K-FITC [RPS3A Nt-free peptide]
[2]
  IAP enrichment in peptide pull-down, Nt-free versus Nt-Ac peptide: no IAP enrichment

## H-AVPAALILREKK-K(Biotin)-NH2 [COMMD10 Nt-free biotinylated peptide]
[2]
  IAP enrichment in peptide pull-down, Nt-free versus Nt-Ac peptide: strongly enriched
hGID/CTLH complex
  hGID/CTLH complex enrichment in peptide pull-down: also enriched
XIAP
  Ubiquitination of streptavidin-bound peptide by XIAP (anti-ubiquitin immunoblot): strongly ubiquitinated

## H-AVPIAQKSEPFKKK-K(Biotin)-NH2 [DIABLO Nt-free biotinylated peptide, reference compound]
[2]
  IAP enrichment in peptide pull-down, Nt-free versus Nt-Ac peptide: preferential binding partners
XIAP
  Ubiquitination of streptavidin-bound peptide by XIAP (anti-ubiquitin immunoblot): levels that were comparable

## H-AVPSPPPASPKK-K(Biotin) [HTRA2 Nt-free biotinylated peptide, reference compound]
[2]
  IAP enrichment in peptide pull-down, Nt-free versus Nt-Ac peptide: preferential binding partners

## H-MAVPAALILREKK-K(Biotin) [Met-COMMD10 Nt-free biotinylated peptide]
[2]
  IAP enrichment in peptide pull-down, Nt-free versus Nt-Ac peptide: did not enrich IAPs

## H-MDDDIAALVVKKK-PEG-(Biotin) [ACTB Nt-free biotinylated peptide]
[2]
  IAP enrichment in peptide pull-down, Nt-free versus Nt-Ac peptide: did not enrich IAPs

## H-MEELIVELRLKKK-PEG-(Biotin) [AFAP1 Nt-free biotinylated peptide]
[2]
  IAP enrichment in peptide pull-down, Nt-free versus Nt-Ac peptide: did not enrich IAPs
